Here are results for 18 molecules from US20130204017A1, “GLYCERYL ASCORBIC ACID ACYLATED DERIVATIVE OR ITS SALT, PRODUCTION METHOD THEREOF, AND COSMETICS” (SEIWA KASEI COMPANY, LIMITED, priority 2012, published 2013).

Bounds are passed on as bounds.

In one data set the test system is B16 melanoma 4A5 cell. Nature of the data set: Melanin production suppressing evaluation test (theophylline-induced melanine production). It is filed as cell-based, mouse. The settings on record: sample at a concentration of 100 μl or less; 0.2 mM theophylline; culturing 3 days. On the procedure: As a test for a whitening effect, evaluation of the action of B16 melanoma 4A5 cell on theophylline-induced melanine production was carried out on a glyceryl ascorbic acid acylated derivative of the present invention, according to the following procedure. The same evaluations were carried out also on arbutin, ascorbic acid, sodium ascorbate, magnesium ascorbyl phosphate, glucosyl ascorbic acid, and 3-O-glyceryl ascorbic acid and 2-O-glyceryl ascorbic acid obtained in the Synthesis Examples mentioned above, as comparison.
(1) B16 mouse melanoma 4A5 strain was sowed onto a 48-well plate at a cell density of 2.0×10^4 cells/well. (2) Culturing was performed for 24 hours with Dulbecco's Modified Eagle's medium (manufactured by SIGMA. Hereinafter, abbreviated as D-MEM) containing 10% fetal bovine serum (manufactured by Roshe Diagnostics). Then, it was changed to 0.2 mM theophylline and a 10% fetal bovine serum-containing D-MEM which contains a sample of given concentration. (3) After culturing for 3 days in the co-existence of a sample, the medium was removed using an aspirator. Then, after distilled water was added, cells were broken by an ultrasonic wave. (4) Thereafter, the amount of protein was determined using BCA protein assay kit (manufactured by PIERCE), and the produced amount of melanine was measured by an alkali solubilizing method described later. To the cell-destructed solution was added sodium hydroxide so as to give a final concentration of 2 mol/L and the mixture was dissolved by heating (60° C., 15 minutes), then, the absorbance at 450 nm was measured using a micro plate reader. The melanine amount was calculated from a calibration curve made using synthetic melanine (SIGMA) as a standard. The melanine amount per unit protein was calculated by dividing the melanine amount by the protein amount. (5) The melanine production suppressing rate was calculated according to the following formula.
Melanine production suppressing rate(%)=[1−(A−B)/(C−B)]×100
[wherein, A represents the melanine amount per unit protein (g/g) in adding a sample, B represents the melanine amount per unit protein (g/g) in the normal group, and C represents the melanine amount per unit protein (g/g) in the control group.]
The normal group means the case where neither theophylline nor sample was added.(that is; theophylline(−) and sample(−))
The control group means the case where neither sample was not added but theophylline was added.(that is; theophylline (+) and sample(−))
In the following Tables, the melanine production suppressing rate in applying a sample at a concentration of […] or less is expressed as described below.

The test system of data set [1] is Normal human dermal fibroblasts. Briefly: Collagen production evaluation test (Sircol collagen assay). In kind it is cell-based. The settings on record: sample 100 μM, cultured 48 hours; for activity at 100 µM: Homo sapiens, Fibroblast, read-out: Collagen production promoting effect (collagen production amount, control group is 100%). On the procedure: The collagen production promoting effects of the glyceryl ascorbic acid acylated derivatives of the present invention were evaluated, according to the following procedure. As comparison, arbutin, ascorbic acid, sodium ascorbate, magnesium ascorbyl phosphate, glucosyl ascorbic acid, 3-O-glyceryl ascorbic acid and 2-O-glyceryl ascorbic acid were used like in Test Example 1.
Normal human dermal fibroblasts were regulated with a 10% (v/v) fetal bovine serum (manufactured by Invitrogen)-containing D-MEM so as to give a cell density of 2.5×10^4 cells/well, then, pre-incubation for 24 hours was performed on a 96-well plate. After the medium was removed, a sample regulated with a 5% (v/v) fetal bovine serum-containing D-MEM to a concentration of 100 μM was added to each well, then, cultured for 48 hours at 37° C. and 5% CO2. After completion of culturing, the amount of free collagen was measured using Sircol collagen assay kit (manufactured by Biocolor).
The collagen production amount in applying a sample at a concentration of 100 μM is obtained as % value when the control group is 100%, and the results are shown in Table 4 based on the following standard.

Data set [2] is described as follows: Stability test: odor and color change of 2% aqueous solution stored at 50° C. The settings on record: pH7, ten panelists. In kind it is physicochemical. On the procedure:
Using 2-O-glyceryl-6-O-octanoyl ascorbic acid obtained in Example 2 and 2-O-glyceryl-6-O-octadecanoyl ascorbic acid obtained in Example 9, an evaluation was made on the stability of odor and color change when stored at 50° C. for 4 weeks, according to the following procedure. For comparison, magnesium ascorbyl phosphate, ascorbic acid and 3-O-glyceryl ascorbic acid were used.
Aqueous solutions (2%) of various test samples were adjusted to pH7 with a dilute sodium hydroxide aqueous solution or a dilute hydrochloric acid aqueous solution, and charged into 50 mL screw tubes. The tubes were sealed and stored at 50° C. for 4 weeks. The odor and degree of color change immediately after preparation, after storage for two weeks and after storage for four weeks were evaluated by ten panelists based on the following methods and according to the following criterion.
3: almost no change as compared with that immediately after preparation
2: color change is observed as compared with that immediately after preparation
1: intense color change is observed as compared with that immediately after preparation
Based on the evaluation results, classification was conducted as shown below.
◯: total point of 10 panelists is 25 or more
Δ: total point of 10 panelists is 16 to 24
x: total point of 10 panelists is 15 or less

Setting [3] is: storage period 0 (immediately after preparation).

In the case of `OC[C@H]1O[C@@H](Oc2ccc(O)cc2)[C@H](O)[C@@H](O)[C@@H]1O` [Arbutin, reference compound], the “Whitening effect (melanine production suppressing rate)” value (shortened to “Whitening effect”) in the data set on B16 melanoma 4A5 cell is “⊚ (50% or more)”. Moreover, the activity at 100 µM in data set [1] was under 100%.
On to `O=C1O[C@H]([C@@H](O)CO)C(O)=C1O` [Ascorbic acid], for which the “Whitening effect” value in the data set with B16 melanoma 4A5 cell is “Δ (Less than 30%)”. Also, in data set [1], the activity at 100 µM fell in the range of 100 to 200%. The Odor result in data set [2] (storage 2 weeks at 50° C.) is listed as “Δ (total point of 10 panelists is 16 to 24)”. For the same molecule, in data set [2] (setting [3]), the Color change entry is reported as “◯ (total point of 10 panelists is 25 or more)” and the Odor result is given as “◯ (total point of 10 panelists is 25 or more)”.
Consider `CCCCCCCCCCCCCC(=O)OC[C@H](O)[C@H]1OC(=O)C(OCC(O)CO)=C1O` (stereo partly shown) [Example 7, 2-O-glyceryl-6-O-tetradecanoyl ascorbic acid], for which the “Whitening effect” value in the data set on B16 melanoma 4A5 cell was “⊚ (50% or more)”.
For the molecule `CCCCCCCCCCCCCCCCCC(=O)OC[C@H](O)[C@H]1OC(=O)C(OCC(O)CO)=C1O` (stereo partly shown) [Example 9, 2-O-glyceryl-6-O-octadecanoyl ascorbic acid], the “Whitening effect” value in the data set with B16 melanoma 4A5 cell is “⊚ (50% or more)”. The Color change entry in data set [2] (storage 2 weeks at 50° C.), in data set [2] (storage 4 weeks at 50° C.) and in data set [2] (setting [3]) was “◯ (total point of 10 panelists is 25 or more)” throughout. For the same molecule, the Odor entry in data set [2] (storage 2 weeks at 50° C.), in data set [2] (storage 4 weeks at 50° C.) and in data set [2] (setting [3]) was “◯ (total point of 10 panelists is 25 or more)” in each case.
As to `CCCCCCCC/C=C\CCCCCCCC(=O)OC[C@H](O)[C@H]1OC(=O)C(OCC(O)CO)=C1O` (stereo partly shown) [Example 10, 2-O-glyceryl-6-O-oleoyl ascorbic acid], the “Whitening effect” value in the data set with B16 melanoma 4A5 cell was “⊚ (50% or more)”.
Same read-out and setting: the value for `CCCC(=O)OCC(O)COC1=C(O)[C@@H]([C@@H](O)COC(=O)CCC)OC1=O` (stereo partly shown) [Example 11, 2-O-(3′-O-butanoylglyceryl)-6-O-butanoyl ascorbic acid] was “◯ (30 to 49%)”.
In the case of `CCCC(=O)OCC(O)COC1=C(OC(=O)CCC)[C@@H]([C@@H](O)COC(=O)CCC)OC1=O` (stereo partly shown) [Example 13, 2-O-(3′-O-butanoylglyceryl)-3,6-di-O-butanoyl ascorbic acid], the “Whitening effect” value in the data set with B16 melanoma 4A5 cell is recorded as “⊚ (50% or more)”. Moreover, the activity at 100 µM in data set [1] is 100 to 200%.
With `CCCCCCCC(=O)OCC(O)COC1=C(O)[C@@H]([C@@H](O)COC(=O)CCC)OC1=O` (stereo partly shown) [Example 15, 2-O-(3′-O-octanoylglyceryl)-6-O-butanoyl ascorbic acid], the activity at 100 µM in data set [1] was in the range of 100 to 200%.
For `CCCCCCCCCCCCCCCC(=O)OCC(O)COC1=C(O)[C@@H]([C@@H](O)COC(=O)CCC)OC1=O` (stereo partly shown) [Example 16, 2-O-(3′-O-hexadecanoylglyceryl)-6-O-butanoyl ascorbic acid], the “Whitening effect” value in the data set with B16 melanoma 4A5 cell is listed as “⊚ (50% or more)”.
`CCCCCCCCCCCC(=O)OC[C@H](O)[C@H]1OC(=O)C(OCC(O)COC(=O)CCC)=C1O` (stereo partly shown) [Example 17, 2-O-(3′-O-butanoylglyceryl)-6-O-dodecanoyl ascorbic acid]: in data set [1], the activity at 100 µM lay in the range of 100 to 200%.
For `CCCCCCCC(=O)OC1=C(OCC(O)CO)C(=O)O[C@@H]1[C@@H](O)CO` (stereo partly shown) [Example 18, 2-O-glyceryl-3-O-octanoyl ascorbic acid], the activity at 100 µM in data set [1] lay in the range of 100 to 200%.
`CCCCCCCCCCCC(=O)OC1=C(OCC(O)CO)C(=O)OC1C(O)COC(=O)CCCCCCC` (stereo not shown) [Example 19, 2-O-glyceryl-3-O-dodecanoyl-6-O-octanoy ascorbic acid]: in the data set with B16 melanoma 4A5 cell, the “Whitening effect” value is recorded as “⊚ (50% or more)”.
As to `CCCC(=O)OC[C@H](O)[C@H]1OC(=O)C(O)=C1OCC(O)CO` (stereo partly shown) [Example 20, 3-O-glyceryl-6-O-butanoyl ascorbic acid], in data set [1], the activity at 100 µM is 100 to 200%.
As for `CCCCCCCC(=O)OC[C@H](O)[C@H]1OC(=O)C(O)=C1OCC(O)CO` (stereo partly shown) [Example 21, 3-O-glyceryl-6-O-octanoyl ascorbic acid], the “Whitening effect” value in the data set on B16 melanoma 4A5 cell is reported as “⊚ (50% or more)”.
As for `CCCCCCCCCCCCCCCC(=O)OC[C@H](O)[C@H]1OC(=O)C(O)=C1OCC(O)CO` (stereo partly shown) [Example 22, 3-O-glyceryl-6-O-hexadecanoyl ascorbic acid], in data set [1], the activity at 100 µM is 100 to 200%.
Same read-out and setting: the value for `CCCCCCCCCCCC(=O)OCC(O)COC1=C(O)C(=O)O[C@@H]1[C@@H](O)COC(=O)CCC` (stereo partly shown) [Example 23, 3-O-(3′-O-dodecanoylglyceryl)-6-O-butanoyl ascorbic acid] was 100 to 200%.
Regarding `O=C1O[C@H]([C@@H](O)CO)C([O-])=C1OP(=O)([O-])[O-].O=C1O[C@H]([C@@H](O)CO)C([O-])=C1OP(=O)([O-])[O-].[Mg+2].[Mg+2].[Mg+2]` [Magnesium ascorbyl phosphate], the “Whitening effect” value in the data set on B16 melanoma 4A5 cell was “Δ (Less than 30%)”. Further, the “Collagen production promoting effect (collagen production amount, control group is 100%)” value in data set [1] is listed as “+ (100 to 200%)”. The results for the Color change result in data set [2] (storage 2 weeks at 50° C.) and in data set [2] (setting [3]) were “Δ (total point of 10 panelists is 16 to 24)” and “◯ (total point of 10 panelists is 25 or more)”, respectively. The Odor entry in data set [2] (storage 2 weeks at 50° C.), in data set [2] (storage 4 weeks at 50° C.) and in data set [2] (setting [3]) was “◯ (total point of 10 panelists is 25 or more)” in each case.
As to `O=C1O[C@H]([C@@H](O)CO)C([O-])=C1O.[Na+]` [Sodium ascorbate, reference compound], the “Whitening effect” value in the data set with B16 melanoma 4A5 cell was “Δ (Less than 30%)”. In addition, in data set [1], the activity at 100 µM was 100 to 200%.
